Assay results as given in patent US8778966B2, “Quinolinone derivatives as PARP and tank inhibitors” (Janssen Pharmaceutica, NV, priority 2007, dated 2014).

Columns and labels:
[1] = biological target: T1, Human PARP-1 enzyme (Homo sapiens, UniProt P09874); assay: In vitro Scintillation Proximity Assay (SPA) for PARP-1 inhibitory activity; type: biochemical; details: read-out: in vitro SPA assay PARP-1 pIC50 (converted)
T1 construct: purchased Trevigen
Experimental: Compounds of the present invention were tested in an in vitro assay based on SPA technology (proprietary to GE healthcare).
In principle, the assay relies upon the well established SPA technology for the detection of poly(ADP-ribosyl)ation of biotinylated target proteins, i.e histones. This ribosylation is induced using nicked DNA activated PARP-1 enzyme and [^3H]-nicotinamide adenine dinucleotide ([^3H]-NAD^+) as ADP-ribosyl donor.
Histones (type II-A, supplier: Sigma) were biotinylated using the biotinylation kit of Amersham and stored aliquoted at −20° C. A stock solution of 100 mg/ml SPA poly(vinyl toluene) (PVT) beads (supplier: Amersham) was made in PBS. A stock solution of 61.6 nM [^3H]-NAD^+ was made by adding [^3H]-NAD^+ (0.1 mCi/ml, supplier: Perkin Elmer) to incubation buffer (50 mM Tris/HCl, pH 8; 0.2 mM DTT; 4 mM MgCl2). A solution of 4 mM NAD^+ (supplier: Sigma) was made. Human PARP-1 enzyme was obtained from Trevigen. Biotinylated histones and PVT-SPA beads were mixed and pre-incubated for 30 min. at room temperature. PARP-1 enzyme (concentration was lot dependent) was mixed with the nicked DNA and the mixture was pre-incubated for 30 min. at 4° C. Equal parts of this histones/PVT-SPA beads solution and PARP-1 enzyme/DNA solution were mixed and 75 μl of this mixture together with 1 μl of compound in DMSO and 25 μl of [^3H]-NAD^+ was added per well into a 96-well microtiterplate. The final concentrations in the incubation mixture were 2 μg/ml for the biotinylated histones, 2 mg/ml for the PVT-SPA beads, 0.25 μg/ml for the nicked DNA and between 0.1-0.2 μg/ml for the PARP-1 enzyme. After incubation of the mixture for 20 min. at room temperature, the reaction was terminated by adding 100 μl of 4 mM NAD^+ in water (final concentration 2 mM) and plates were mixed. The beads were sedimented by centrifugation (10 min, 800 rpm). and plates transferred to a TopCountNXT™ (Packard) for scintillation counting, values were expressed as counts per minute (cpm). For each experiment, controls (containing PARP-1 enzyme and DMSO without compound), a blank incubation (containing DMSO but no PARP-1 enzyme, no DNA or compound) and samples (containing PARP-1 enzyme, DNA and compound dissolved in DMSO) were run in parallel. All compounds tested were dissolved and eventually further diluted in DMSO. A dose-response curve was made wherein the compounds were tested at concentrations between 10^−5M and 3×10^−9M. In each test, the blank value was subtracted from both the control and the sample values. The control sample represented maximal PARP-1 enzyme activity. For each sample, the amount of cpm was expressed as a percentage of the mean cpm value of the controls. When appropriate, IC50-values (concentration of the drug, needed to reduce the PARP-1 enzyme activity to 50% of the control) were computed using linear interpolation between the experimental points just above and below the 50% level. Herein the effects of test compounds are expressed as pIC50 (the negative log value of the IC50-value). As a reference compound, 4-amino-1,8-naphthalimide was included to validate the SPA assay.

[2] = system: HCT116 cells; assay: Antiproliferative activity, Alamar Blue assay, HCT116 cells; type: cell-based, human; parameters: key to HCT116 antiproliferative activity pIC50: pIC50 = -log IC50 (IC50: conc. reducing growth to 50% of control); details: for IC50: Homo sapiens, HCT-116, HCT116 cells, read-out: HCT116 antiproliferative activity pIC50 (converted)
Experimental: Human colon carcinoma HCT116 cells obtained from the ATCC were cultured in McCoy's 5 A medium supplemented with 2 mM L-Glutamine, 50 μg/ml gentamicin and 10% heat inactivated fetal calf serum.
(§1) Resazurin was purchased from Aldrich (Prod. No. 199303). Potassium ferrocyanide, potassium ferricyanide, KH2PO4 and K2HPO4 were purchased from Sigma (Prod. Nos. P9387, P8131, P5655 and P8281, respectively).
(§2) Potassium Phosphate Buffer 0.1 M (PPB) was made as follows: 2.72 gram KH2PO4 and 13.86 gram K2HPO4 were dissolved in 500 ml milli-Q H2O, the pH was adjusted to pH 7.4 and the volume was brought to 1 litre with milli-Q H2O; the buffer was filter sterilised and stored at room temperature. Resazurin stock solution (PPB-A) was prepared fresh by dissolving 45 mg resazurin in 15 ml PBS. 30 mM potassium ferricyanide (PPB-B) was prepared by dissolving 0.987 gram potassium ferricyanide in 100 ml PPB. 30 mM potassium ferrocyanide (PPB-C) was prepared by dissolving 1.266 gram potassium ferrocyanide in 100 ml PPB.
(§3) Mixture of PPB-A, PPB-B and PPB-C was prepared by mixing equal volumes of the respective solutions. Resazurin work solution (herein termed “Alamar Blue” solution) was prepared by diluting said mixture 20×(vol/vol) in PPB and filter sterilising; the Alamar Blue solution could be kept at 4° C. for a maximum of 2 weeks.
(§4) For experiments in 384 wells plates the cells were seeded at a density of 4.5×10^3 cells/ml in Falcon 384-well culture plates (Life Technologies, Merelbeke, Belgium), black with clear bottom, in 45 μl culture medium. Cells were allowed to adhere to plastic for 24 hr. The tested compound was pre-diluted (1/50 in culture medium) and 5 μl pre-diluted compound was added to the wells. Following 4-day incubation, 10 μl of the Alamar Blue solution was added to each well and the cells were further incubated for 4 hrs (HCT116) or 24 hrs (PC-3) at 37° C. The fluorescence intensity was measured for each well on a Fluorescence plate reader (Fluorskan, Labsystems, 540 nm excitation and 590 nm emission)
(§5) The antiproliferative activity was calculated as percentage of remaining viable cells in treated versus control (untreated cells) conditions. Within an experiment, the result for each experimental condition is the mean of 3 replicate wells. When appropriate, the experiments were repeated to establish full concentration-response curves. When appropriate, IC50-values (concentration of the drug, needed to reduce cell growth to 50% of the control) were computed using probit analysis for graded data (Finney, D. J., Probit Analyses, 2nd Ed. Chapter 10, Graded Responses, Cambridge University Press, Cambridge 1962). Herein the effects of test compounds are expressed as pIC50 (the negative log value of the IC50-value) (see Table 2).

[3] = system: PC3 cells; assay: EB1 Comet (microtubule disruption) assay; type: cell-based, human; details: 1 hour treatment
Experimental: The Eb1 Comet assay relies on the detection of the Eb1 protein at the plus end of polymerizing microtubules (Mimori-Kiyosue, 2000) using indirect immunofluorescence. Disruption of microtubule dynamics through de-polymerization or stabilization results in a de-localization of Eb1 from the growing microtubule ends and this is visualized by the disappearance of Eb1 containing cytoplasmic foci.
Briefly, human prostate cancer PC3 cells obtained from the American Type Culture Collection were grown in 96-well plates (Greiner, cat. no. 655090) in HAM's F12 medium as recommended by the provider (ATCC). The cells were treated for 1 hour at 37° C. with compounds dissolved in DMSO (0.6% final DMSO concentration). The culture medium was then removed by aspiration and the cells were fixed by adding cold methanol (−20 C). After a 15 min. incubation at −20 C, the cells were washed twice with DPBS (Gibco) containing 0.5% Triton X-100. Mouse Eb1 antibody (BD Transduction Laboratories, cat. no. 610534) was added to the cells (1/250 dilution in DPBS containing 1% BSA) and incubated overnight at room temperature. The antibody was subsequently removed and the cells washed twice with DPBS, 0.5% Triton X-100. Secondary goat anti-mouse antibody conjugated to Alexa 488 fluorescent dye (Molecular Probes) was added at a 1/500 dilution in DPBS, 1% BSA and incubated for 1 hour at 37 C. The cells were washed twice with DPBS, 0.5% Triton X-100 and then DPBS containing 0.5% Triton X-100 and 1/5000 Hoechst 33342 (Molecular Probes) was added. Microscopy based Eb1 foci visualization was carried out using an IN Cell Analyser 1000 (Amersham Biosciences) using a 20× objective. Compound dependent microtubule disruption was visually determined by the disappearance in Eb1 foci. The lowest active concentration (LAC) was determined as the concentration where Eb1 foci were absent in at least 50% of the treated cells.

[4] = system: PC-3 cells; assay: Antiproliferative activity, Alamar Blue assay, PC-3 cells; type: cell-based, human; details: for IC50: Homo sapiens, PC-3, PC3 cells, read-out: PC3 antiproliferative activity pIC50 (converted)
Experimental: Human prostate cancer PC-3 cells obtained from the ATCC were cultured in HAM′S F12 medium supplemented with 1 mM Sodium Pyruvate, 1.5 g/L Sodium Bicarbonate, 50 μg/ml gentamicin, non-essential amino acids and 10% fetal calf serum.
as §1, §2, §3, §4, §5

[5] = biological target: T2, TANK-2 enzyme (Homo sapiens, UniProt Q9H2K2); assay: In vitro Scintillation Proximity Assay (SPA) for TANK-2 inhibitory activity; type: biochemical; details: read-out: in vitro SPA assay TANK-2 pIC50 (converted)
T2 construct: made in house
T2 sequence (Q9H2K2 1-1166): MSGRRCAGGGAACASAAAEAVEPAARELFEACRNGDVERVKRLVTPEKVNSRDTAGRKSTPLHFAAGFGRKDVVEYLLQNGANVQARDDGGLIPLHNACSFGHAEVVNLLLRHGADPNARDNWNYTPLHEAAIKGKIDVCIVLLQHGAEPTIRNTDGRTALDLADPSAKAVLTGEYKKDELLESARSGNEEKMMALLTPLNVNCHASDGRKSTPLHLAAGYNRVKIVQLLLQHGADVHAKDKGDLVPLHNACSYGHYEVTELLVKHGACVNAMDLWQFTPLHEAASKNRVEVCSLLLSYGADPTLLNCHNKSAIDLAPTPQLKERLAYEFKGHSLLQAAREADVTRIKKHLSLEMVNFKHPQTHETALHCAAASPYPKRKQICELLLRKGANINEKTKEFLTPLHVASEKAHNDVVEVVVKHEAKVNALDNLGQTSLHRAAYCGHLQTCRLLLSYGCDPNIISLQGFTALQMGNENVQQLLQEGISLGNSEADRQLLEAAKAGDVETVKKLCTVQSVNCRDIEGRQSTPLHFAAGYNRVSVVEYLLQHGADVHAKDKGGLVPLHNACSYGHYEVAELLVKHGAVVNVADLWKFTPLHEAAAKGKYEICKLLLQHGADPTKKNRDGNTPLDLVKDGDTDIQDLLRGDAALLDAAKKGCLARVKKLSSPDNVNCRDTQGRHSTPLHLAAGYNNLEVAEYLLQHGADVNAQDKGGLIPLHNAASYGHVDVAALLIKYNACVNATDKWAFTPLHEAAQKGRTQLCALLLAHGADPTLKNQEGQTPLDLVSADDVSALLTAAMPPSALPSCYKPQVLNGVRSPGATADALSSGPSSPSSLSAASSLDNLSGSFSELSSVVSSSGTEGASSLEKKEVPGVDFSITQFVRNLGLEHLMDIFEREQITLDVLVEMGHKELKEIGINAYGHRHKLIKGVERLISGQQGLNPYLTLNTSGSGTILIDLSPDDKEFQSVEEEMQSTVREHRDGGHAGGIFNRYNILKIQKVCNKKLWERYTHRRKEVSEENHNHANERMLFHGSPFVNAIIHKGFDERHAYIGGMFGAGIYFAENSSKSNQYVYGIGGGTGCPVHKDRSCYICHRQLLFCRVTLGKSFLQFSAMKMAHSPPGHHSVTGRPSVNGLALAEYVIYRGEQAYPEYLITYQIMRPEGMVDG
Experimental: Compounds of the present invention were tested in an in vitro assay based on SPA technology with Ni Flash plates (96 or 384 well). In principle, the assay relies upon SPA technology for the detection of auto-poly(ADP-ribosyl)ation of TANK-2 protein using [^3H]-nicotinamide adenine dinucleotide ([^3H]-NAD^+) as ADP-ribosyl donor.
A stock solution of 100 nM [3H]-NAD^+/NAD (0.1 mCi/ml, supplier: Perkin Elmer) and 0.25 μM NAD (Sigma) was made in assay buffer (60 mM Tris/HCl, pH 7.4; 0.9 mM DTT; 6 mM MgCl2). The TANK-2 enzyme was produced as described in EP1238063. 60 μl of assay buffer, together with 1 μl of compound in DMSO, 20 μl of [^3H]-NAD^+/NAD and 20 μl of TANK-2 enzyme (final concentration 8 μg/ml) was added per well into a 96-well Ni-coated flash plate (Perkin Elmer). After incubation of the mixture for 120 min. at room temperature, the reaction was terminated by adding 60 μl of stopsolution (42.6 mg NAD in 6 ml H2O). The plates were covered with a plate sealer and placed in a TopCountNXT™ (Packard) for scintillation counting. Values were expressed as counts per minute (cpm). For each experiment, controls (containing TANK-2 enzyme and DMSO without compound), a blank incubation (containing DMSO but no TANK-2 enzyme or compound) and samples (containing TANK-2 enzyme and compound dissolved in DMSO) were run in parallel. All compounds tested were dissolved and eventually further diluted in DMSO. In first instance, compounds were tested at a concentration of 10^−5M. […] In each test, the blank value was subtracted from both the control and the sample values. The control sample represented maximal TANK-2 enzyme activity. For each sample, the amount of cpm was expressed as a percentage of the mean cpm value of the controls. When appropriate, IC50-values (concentration of the drug, needed to reduce the TANK-2 enzyme activity to 50% of the control) were computed using linear interpolation between the experimental points just above and below the 50% level. Herein the effects of test compounds are expressed as pIC50 (the negative log value of the IC50-value). As reference compounds, 3-aminobenzamide and 4-amino-1,8-naphtalimide were included to validate the SPA assay. Herein the assay was described using 96-well plates. In the assay using 384-well plates the same final concentrations were used and volumes were adapted.

T1 sequence (P09874 whole entry): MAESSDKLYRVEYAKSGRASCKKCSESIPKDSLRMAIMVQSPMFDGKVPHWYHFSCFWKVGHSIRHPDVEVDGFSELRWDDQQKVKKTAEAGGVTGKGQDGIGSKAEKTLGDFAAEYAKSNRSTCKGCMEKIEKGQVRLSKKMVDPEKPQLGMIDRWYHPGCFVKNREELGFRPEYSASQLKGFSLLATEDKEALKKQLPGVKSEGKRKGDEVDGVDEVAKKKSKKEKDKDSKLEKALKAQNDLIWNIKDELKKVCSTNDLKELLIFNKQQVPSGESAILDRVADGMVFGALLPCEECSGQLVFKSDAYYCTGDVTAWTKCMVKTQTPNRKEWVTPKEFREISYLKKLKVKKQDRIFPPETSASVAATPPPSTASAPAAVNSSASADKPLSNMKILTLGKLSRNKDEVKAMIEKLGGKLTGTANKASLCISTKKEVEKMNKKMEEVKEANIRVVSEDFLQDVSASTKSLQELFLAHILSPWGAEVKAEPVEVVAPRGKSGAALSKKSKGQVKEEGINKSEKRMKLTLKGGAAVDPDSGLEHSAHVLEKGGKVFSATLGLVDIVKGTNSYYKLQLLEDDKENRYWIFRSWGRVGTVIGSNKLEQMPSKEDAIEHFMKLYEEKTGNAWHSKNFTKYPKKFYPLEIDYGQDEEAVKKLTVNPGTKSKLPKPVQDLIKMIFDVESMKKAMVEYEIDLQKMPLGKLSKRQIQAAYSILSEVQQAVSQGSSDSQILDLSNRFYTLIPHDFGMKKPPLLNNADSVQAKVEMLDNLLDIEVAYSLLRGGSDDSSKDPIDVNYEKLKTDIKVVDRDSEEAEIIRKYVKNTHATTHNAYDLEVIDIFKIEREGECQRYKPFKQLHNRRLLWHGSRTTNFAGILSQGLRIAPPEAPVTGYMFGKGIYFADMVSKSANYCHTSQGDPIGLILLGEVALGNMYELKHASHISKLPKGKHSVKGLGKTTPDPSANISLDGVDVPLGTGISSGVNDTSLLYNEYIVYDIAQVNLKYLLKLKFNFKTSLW

SMILES | IC50 [1] [µM] | IC50 [2] [µM] | minimal effective concentration ([3]; Homo sapiens, PC-3, 1 h, read-out: EB1 pLAC (converted)) [µM] | IC50 [4] [µM] | HCT116 antiproliferative activity pIC50 ([2]; HCT116 cells) | EB1 pLAC [3] | PC3 antiproliferative activity pIC50 ([4]; PC3 cells) | IC50 [5] [µM]
Cc1cc2ccc([C@](C)(C#N)[C@H]3CCc4cc(Br)ccc43)cc2[nH]c1=O [Compound 239] | 0.501 | 2 | 1 | 2.51 |  |  |  | 
Cc1cc2ccc(C(C)(C#N)C3CCc4cc(Br)ccc43)cc2[nH]c1=O (stereo not shown) [Compound 243] | 0.316 |  |  |  | 5.4 | 6 | 5.2 | 
Cc1cc2ccc([C@@](C)(C#N)[C@H]3CCCc4ccccc43)cc2[nH]c1=O [Compound 384] | 0.0501 |  |  |  |  |  |  | 1
Cc1cc2ccc([C@@](C)(C#N)[C@@H]3CCc4ccc(Br)cc43)cc2[nH]c1=O [Compound 408] | 0.251 | 5.01 |  | 10 |  |  |  | 
